Consider 30 compounds from patent US11634396B2 (priority 2021, dated 2023).

The test has as its target human mOR (Homo sapiens (Human), UniProt P35372). Nature of the test: cell-based.
Where [1] appears, read: CHO Tag-lite human mOR stable cell line, forskolin 4 μM and DAMGO at EC90, read-out: mOR cAMP Antagonist Assay IC50.

Counter-ions that a name gives are not always drawn. Like-named read-outs stand apart in the source and are kept apart here. Some results are limits rather than exact numbers.

Sequence of human mOR (P35372 whole entry): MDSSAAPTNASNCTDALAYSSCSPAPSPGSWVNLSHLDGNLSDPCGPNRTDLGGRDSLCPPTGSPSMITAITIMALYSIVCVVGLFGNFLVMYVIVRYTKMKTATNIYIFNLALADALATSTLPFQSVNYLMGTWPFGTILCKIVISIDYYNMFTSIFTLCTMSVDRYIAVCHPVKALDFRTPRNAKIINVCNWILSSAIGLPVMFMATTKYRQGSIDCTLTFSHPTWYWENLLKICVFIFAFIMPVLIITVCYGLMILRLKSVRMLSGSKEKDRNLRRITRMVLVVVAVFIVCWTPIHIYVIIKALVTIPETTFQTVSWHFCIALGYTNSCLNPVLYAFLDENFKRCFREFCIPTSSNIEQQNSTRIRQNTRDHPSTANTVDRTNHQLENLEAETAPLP

For `CN(C)[C@H](CNC(=O)C[C@H](c1cccnc1)C1(C(F)(F)F)CC1)Cc1ccc2[nH]ncc2c1Cl` [Compound 192, (R)-N-((S)-3-(4-chloro-1H-indazol-5-yl)-2-(dimethylamino)propyl)-3-(pyridin-3-yl)-3-(1-(trifluoromethyl)cyclopropyl)propanamide], the IC50 was under 300 nM.

For the compound `CN(C)[C@H](CNC(=O)C[C@H](c1cccnc1)C1(C(F)(F)F)CC1)Cc1ccc2[nH]ncc2c1F` [Compound 195, (R)-N-((S)-2-(dimethylamino)-3-(4-fluoro-1H-indazol-5-yl)propyl)-3-(pyridin-3-yl)-3-(1-(trifluoromethyl)cyclopropyl)propanamide], the IC50 is under 300 nM.

In the case of `Cc1c(C[C@@H](CNC(=O)C[C@H](c2ccncc2)C2(C(F)(F)F)CC2)N(C)C)ccc2[nH]ncc12` [Compound 196, (R)-N-((S)-2-(dimethylamino)-3-(4-methyl-1H-indazol-5-yl)propyl)-3-(pyridin-4-yl)-3-(1-(trifluoromethyl)cyclopropyl)propanamide], the IC50 was under 300 nM.

As to `Cc1c(C[C@@H](CNC(=O)C[C@H](c2cccnc2)C2(C(F)(F)F)CC2)N(C)C)ccc2[nH]ncc12` [Compound 197, (R)-N-((S)-2-(dimethylamino)-3-(4-methyl-1H-indazol-5-yl)propyl)-3-(pyridin-3-yl)-3-(1-(trifluoromethyl)cyclopropyl)propanamide], the IC50 is under 300 nM.

`Cc1c(C[C@@H](CNC(=O)C[C@H](c2cccnc2)C2(C)CC2)N(C)C)ccc2[nH]ncc12` [Compound 199, (S)-N-((S)-2-(dimethylamino)-3-(4-methyl-1H-indazol-5-yl)propyl)-3-(1-methylcyclopropyl)-3-(pyridin-3-yl)propanamide]: the IC50 is under 300 nM.

On to `CN[C@H](CNC(=O)C[C@H](c1cccnc1)C1(C(F)(F)F)CC1)Cc1ccc2[nH]ncc2c1` [Compound 200, (R)-N-((S)-3-(1H-indazol-5-yl)-2-(methylamino)propyl)-3-(pyridin-3-yl)-3-(1-(trifluoromethyl)cyclopropyl)propanamide], for which, under setting [1], the IC50 lay in the range of 300 to 3000 nM.

On to `N[C@H](CNC(=O)C[C@H](c1cccnc1)C1(C(F)(F)F)CC1)Cc1ccc2[nH]ncc2c1` [Compound 201, (R)-N-((S)-2-amino-3-(1H-indazol-5-yl)propyl)-3-(pyridin-3-yl)-3-(1-(trifluoromethyl)cyclopropyl)propenamide dihydrochloride salt], for which, under setting [1], the IC50 was over 3000 nM.

As to `Cc1cc([C@@H](CC(=O)NC[C@H](Cc2ccc3[nH]ncc3c2)N(C)C)C2(C(F)(F)F)CC2)ccn1` [Compound 202, (R)-N-((S)-2-(dimethylamino)-3-(1H-indazol-5-yl)propyl)-3-(2-methylpyridin-4-yl)-3-(1-(trifluoromethyl)cyclopropyl)propanamide], the IC50 under setting [1] is under 300 nM.

As for `Cc1cncc([C@H](CC(=O)NC[C@H](Cc2ccc3[nH]ncc3c2)N(C)C)C2(C(F)(F)F)CC2)c1` [Compound 203, (S)-N-((S)-2-(dimethylamino)-3-(1H-indazol-5-yl)propyl)-3-(5-methylpyridin-3-yl)-3-(1-(trifluoromethyl)cyclopropyl)propanamide], the IC50 fell in the range of 300 to 3000 nM.

Turning to `CN(C)[C@H](CNC(=O)C[C@H](c1cccnc1)C1(C)CC1)Cc1ccc2[nH]ncc2c1` [Compound 204, (S)-N-((S)-2-(dimethylamino)-3-(1H-indazol-5-yl)propyl)-3-(1-methylcyclopropyl)-3-(pyridin-3-yl)propanamide], the IC50 was under 300 nM.

With `CN(C)[C@H](CNC(=O)C[C@H](c1cncc(Cl)c1)C1(C(F)(F)F)CC1)Cc1ccc2[nH]ncc2c1` [Compound 205, (R)-3-(5-chloropyridin-3-yl)-N-((S)-2-(dimethylamino)-3-(1H-indazol-5-yl)propyl)-3-(1-(trifluoromethyl)cyclopropyl) propanamide], the IC50 under setting [1] is under 300 nM.

As to `CC(C)[C@H](CC(=O)NC[C@H](Cc1ccc2[nH]ncc2c1)N(C)C)c1cccnc1` [Compound 206, (S)-N-((S)-2-(dimethylamino)-3-(1H-indazol-5-yl)propyl)-4-methyl-3-(pyridin-3-yl)pentanamide], under setting [1], the IC50 is 300 to 3000 nM.

For `CN(C)[C@H](CNC(=O)C[C@H](c1cccnc1)C1CC1)Cc1ccc2[nH]ncc2c1` [Compound 207, (S)-3-cyclopropyl-N-((S)-2-(dimethylamino)-3-(1H-indazol-5-yl)propyl)-3-(pyridin-3-yl)propanamide], the IC50 under setting [1] is over 3000 nM.

Regarding `CN(C)[C@H](CNC(=O)C[C@@H](c1ccncc1)C1(C(F)(F)F)CC1)Cc1ccc2[nH]ncc2c1` [Compound 208, (S)-N-((S)-2-(dimethylamino)-3-(1H-indazol-5-yl)propyl)-3-(pyridin-4-yl)-3-(1-(trifluoromethyl)cyclopropyl)propanamide], the IC50 was under 300 nM.

Consider `CN(C)[C@H](CNC(=O)C[C@H](c1ccncc1)C1(C(F)(F)F)CC1)Cc1ccc2[nH]ncc2c1` [Compound 209], for which the IC50 was under 300 nM.

Regarding `Cc1ccc([C@@H](CC(=O)NC[C@H](Cc2ccc3[nH]ncc3c2)N(C)C)C2(C(F)(F)F)CC2)cn1` [Compound 211, (R)-N-((S)-2-(dimethylamino)-3-(1H-indazol-5-yl)propyl)-3-(6-methylpyridin-3-yl)-3-(1-(trifluoromethyl)cyclopropyl)propanamide], the IC50 is under 300 nM.

Turning to `CN(C)[C@H](CNC(=O)C[C@@H](CC1CC1)c1cccnc1)Cc1ccc2[nH]ncc2c1` [Compound 212, (R)-4-cyclopropyl-N-((S)-2-(dimethylamino)-3-(1H-indazol-5-yl)propyl)-3-(pyridin-3-yl)butanamide], under setting [1], the IC50 is over 3000 nM.

With `CN(C)[C@H](CNC(=O)C[C@H](c1cccnc1)C1(C(F)(F)F)CC1)Cc1ccc2[nH]ncc2c1` [Compound 213, (R)-N-((S)-2-(dimethylamino)-3-(1H-indazol-5-yl)propyl)-3-(pyridin-3-yl)-3-(1-(trifluoromethyl)cyclopropyl)propanamide], the half-inhibitory concentration (IC50) is under 300 nM.

As to `CN(C)[C@H](CNC(=O)C[C@H](c1cccnc1)C1(C(F)(F)F)CC1)Cc1cc(F)c2[nH]ncc2c1` [Compound 230, (R)-N-((S)-2-(dimethylamino)-3-(7-fluoro-1H-indazol-5-yl)propyl)-3-(pyridin-3-yl)-3-(1-(trifluoromethyl)cyclopropyl)propanamide], the IC50 was under 300 nM.

On to `Cc1cc(C[C@@H](CNC(=O)C[C@H](c2cccnc2)C2(C(F)(F)F)CC2)N(C)C)cc2cn[nH]c12` [Compound 231, (R)-N-((S)-2-(dimethylamino)-3-(7-methyl-1H-indazol-5-yl)propyl)-3-(pyridin-3-yl)-3-(1-(trifluoromethyl)cyclopropyl)propanamide; bis(trifluoroacetic acid)], for which the IC50 is under 300 nM.

Consider `CN(C)[C@H](CNC(=O)C[C@H](c1cccnc1)C1(C(F)(F)F)CC1)Cc1ccc2cn[nH]c2c1` [Compound 232, (R)-N-((S)-2-(dimethylamino)-3-(1H-indazol-6-yl)propyl)-3-(pyridin-3-yl)-3-(1-(trifluoromethyl)cyclopropyl)propanamide], for which the IC50 lay in the range of 300 to 3000 nM.

As for `Cc1ncc([C@@H](CC(=O)NC[C@H](Cc2cc3cn[nH]c3cc2Cl)N(C)C)C2(C(F)(F)F)CC2)cn1` [Compound 233, (R)-N-((S)-3-(6-chloro-H-indazol-5-yl)-2-(dimethylamino)propyl)-3-(2-methylpyrimidin-5-yl)-3-(1-(trifluoromethyl)cyclopropyl) propanamide], the IC50 under setting [1] is under 300 nM.

Turning to `CN(C)[C@H](CNC(=O)C[C@H](c1ccncc1)C1(C(F)(F)F)CC1)Cc1cc2cn[nH]c2cc1Cl` [Compound 234, (R)-N-((S)-3-(6-chloro-H-indazol-5-yl)-2-(dimethylamino)propyl)-3-(pyridin-4-yl)-3-(1-(trifluoromethyl)cyclopropyl)propanamide], the IC50 under setting [1] is under 300 nM.

With `CN(C)[C@H](CNC(=O)C[C@H](c1cccnc1)C1(C(F)(F)F)CC1)Cc1cc2cn[nH]c2cc1Cl` [Compound 235, (R)-N-((S)-3-(6-chloro-1H-indazol-5-yl)-2-(dimethylamino)propyl)-3-(pyridin-3-yl)-3-(1-(trifluoromethyl)cyclopropyl)propanamide], the half-maximal inhibitory concentration (IC50) is under 300 nM.

In the case of `CN(C)[C@H](CNC(=O)C[C@@H](c1cccnc1)C1(C(F)(F)F)CC1)Cc1ccc2[nH]ncc2c1` [Compound 237, (S)-N-((S)-2-(dimethylamino)-3-(1H-indazol-5-yl)propyl)-3-(pyridin-3-yl)-3-(1-(trifluoromethyl)cyclopropyl)propanamide], the IC50 under setting [1] is under 300 nM.

As for `CN(C)[C@H](CNC(=O)C[C@H](c1cccnc1)C1(C(F)(F)F)CC1)Cc1cc(F)c(O)cc1F` [Compound 238, (R)-N-((S)-3-(2,5-difluoro-4-hydroxyphenyl)-2-(dimethylamino)propyl)-3-(pyridin-3-yl)-3-(1-(trifluoromethyl)cyclopropyl)propanamide], the IC50 was under 300 nM.

With `CN(C)[C@H](CNC(=O)C[C@H](c1ccncc1)C1CC1)Cc1c(F)cc(O)cc1F` [Compound 239, (S)-3-cyclopropyl-N-((S)-3-(2,6-difluoro-4-hydroxyphenyl)-2-(dimethylamino)propyl)-3-(pyridin-4-yl)propanamide], the IC50 was under 300 nM.

`Cc1cc(O)cc(C)c1C[C@@H](CNC(=O)C[C@H](CC1CC1)c1cccnc1)N(C)C` [Compound 241, (S)-4-cyclopropyl-N-((S)-2-(dimethylamino)-3-(4-hydroxy-2,6-dimethylphenyl)propyl)-3-(pyridin-3-yl)butanamide]: the IC50 is under 300 nM.

Take `Cc1cc(O)cc(C)c1C[C@@H](CNC(=O)C[C@H](c1cccnc1)C1(C(F)(F)F)CC1)N(C)C` [Compound 242, (R)-N-((S)-2-(dimethylamino)-3-(4-hydroxy-2,6-dimethylphenyl)propyl)-3-(pyridin-3-yl)-3-(1-(trifluoromethyl)cyclopropyl)propanamide]: the IC50 is under 300 nM.

`Cc1cc(O)cc(C)c1C[C@@H](CNC(=O)C[C@@H](c1cccnc1)C1(C(F)(F)F)CC1)N(C)C` [Compound 243, (S)-N-((S)-2-(dimethylamino)-3-(4-hydroxy-2,6-dimethylphenyl)propyl)-3-(pyridin-3-yl)-3-(1-(trifluoromethyl)cyclopropyl)propanamide]: the IC50 was under 300 nM.

As a reminder, the IC50 is the concentration that gives 50% inhibition.
